Values joined by “and” are separate entries in the source; they are usually repeats but may differ in a detail not shown here. Equal values may be shown once.
Assay: Single dose 300 mg / 450 mg pharmacokinetic, safety and tolerability study in healthy male and female subjects
Details: for concentration at 2 h / concentration at 3 h / concentration at 4 h / concentration at 6 h / concentration at 8 h / concentration at 10 h / concentration at 12 h / concentration at 18 h / concentration at 24 h / concentration at […] / half-life / AUC(0-t) / Cmax / Tmax / concentration at 0 h / concentration at 0.5 h / concentration at 1 h: plasma, po; for Percent of Dose in Urine (0-24 hr) / Ratio DOV 216,298/DOV 21,947 in urine (0-24 hr): Mean (SD)
[1] = single oral 300 mg DOV 21,947 HCl IR
[2] = single oral 450 mg DOV 21,947 HCl IR

O=C1NCC2(c3ccc(Cl)c(Cl)c3)CC12 (stereo not shown) [EB-10101, 5-(3,4-dichloro-phenyl)-3-aza-bicyclo[3.1.0]hexan-2-one]
concentration at 2 h (female, human, 450 mg): 1030 ng/mL
concentration at 3 h (female, human, 450 mg): 1650 ng/mL
concentration at 4 h (female, human, 450 mg): 2180 ng/mL
concentration at 6 h (female, human, 450 mg): 2710 ng/mL
concentration at 8 h (female, human, 450 mg): 2990 ng/mL
concentration at 10 h (female, human, 450 mg): 3030 ng/mL
concentration at 12 h (female, human, 450 mg): 2930 ng/mL
concentration at 18 h (female, human, 450 mg): 2140 ng/mL
concentration at 24 h (female, human, 450 mg): 2390 ng/mL
concentration at […] (female, human, 450 mg): 0 ng/mL and 155 ng/mL and 539 ng/mL and 660 ng/mL
half-life (female, human, 450 mg, t½ (Harmonic mean), single oral 450 mg DOV 21,947 HCl IR, N = 5): 24.5 h
half-life (female, human, 450 mg, t½, single oral 450 mg DOV 21,947 HCl IR, N = 5, arithmetic mean): 41.8 h
exposure to lactam greater than parent drug over 24 hr (human, in vivo): approximately 70%
AUC(0-t) (male, human, 300 mg): 29200 ng·h/mL
Cmax (male, human, 300 mg): 1740 ng/mL
Tmax (male, human, 300 mg): 6.4 h
concentration at 0 h (male, human, 300 mg): 0 ng/mL
concentration at 0.5 h (male, human, 300 mg): 62.9 ng/mL
concentration at 1 h (male, human, 300 mg): 404 ng/mL
concentration at 2 h (male, human, 300 mg): 1040 ng/mL
concentration at 3 h (male, human, 300 mg): 1490 ng/mL
concentration at 4 h (male, human, 300 mg): 1470 ng/mL
concentration at 6 h (male, human, 300 mg): 1520 ng/mL
concentration at 8 h (male, human, 300 mg): 1590 ng/mL
concentration at 10 h (male, human, 300 mg): 1670 ng/mL
concentration at 12 h (male, human, 300 mg): 1410 ng/mL
concentration at 18 h (male, human, 300 mg): 1100 ng/mL
concentration at 24 h (male, human, 300 mg): 820 ng/mL
concentration at […] (male, human, 300 mg): 3.03 ng/mL and 238 ng/mL and 629 ng/mL and 753 ng/mL
half-life (male, human, 300 mg, t½ (Harmonic mean), single oral 300 mg DOV 21,947 HCl IR, N = 5): 13.7 h
half-life (male, human, 300 mg, t½, single oral 300 mg DOV 21,947 HCl IR, N = 5, arithmetic mean): 15.3 h
AUC(0-t) (male, human, 450 mg): 46100 ng·h/mL
Cmax (male, human, 450 mg): 2550 ng/mL
Tmax (male, human, 450 mg): 9.2 h
concentration at 0 h (male, human, 450 mg): 0 ng/mL
concentration at 0.5 h (male, human, 450 mg): 107 ng/mL
concentration at 1 h (male, human, 450 mg): 388 ng/mL
concentration at 2 h (male, human, 450 mg): 1620 ng/mL
concentration at 3 h (male, human, 450 mg): 1980 ng/mL
concentration at 4 h (male, human, 450 mg): 2150 ng/mL
concentration at 6 h (male, human, 450 mg): 2320 ng/mL
concentration at 8 h (male, human, 450 mg): 2360 ng/mL
concentration at 10 h (male, human, 450 mg): 2520 ng/mL
concentration at 12 h (male, human, 450 mg): 2310 ng/mL
concentration at 18 h (male, human, 450 mg): 1880 ng/mL
concentration at 24 h (male, human, 450 mg): 1450 ng/mL
concentration at […] (male, human, 450 mg): 0 ng/mL and 214 ng/mL and 752 ng/mL and 954 ng/mL
half-life (male, human, 450 mg, t½ (Harmonic mean), single oral 450 mg DOV 21,947 HCl IR, N = 5): 16.6 h
half-life (male, human, 450 mg, t½, single oral 450 mg DOV 21,947 HCl IR, N = 5, arithmetic mean): 23.4 h
λz (single oral 300 mg DOV 21,947 HCl IR, Female, N = 5): 0.046^b hr^−1
λz (single oral 300 mg DOV 21,947 HCl IR, Male, N = 5): 0.051 h⁻¹
Percent of Dose in Urine (0-24 hr) [1]: 0.075 (0.024) Percent of Dose
Ratio DOV 216,298/DOV 21,947 in urine (0-24 hr) [1]: 0.195 (0.092)
Mean Amount in Urine (single oral 300 mg DOV 21,947 HCl IR, Period 0-1 hr): 0.0 µg
Mean Amount in Urine (single oral 300 mg DOV 21,947 HCl IR, Period 1-2 hr): 2.7 µg
Mean Amount in Urine (single oral 300 mg DOV 21,947 HCl IR, Period 2-4 hr): 52.5 µg
Mean Amount in Urine (single oral 300 mg DOV 21,947 HCl IR, Period 4-8 hr): 56.2 µg
Mean Amount in Urine (single oral 300 mg DOV 21,947 HCl IR, Period 8-12 hr): 34.8 µg
Mean Amount in Urine (single oral 300 mg DOV 21,947 HCl IR, Period 12-24 hr): 47.8 µg
Mean Amount in Urine (single oral 300 mg DOV 21,947 HCl IR, Total (0-24 hr)): 194 µg
λz (single oral 300 mg DOV 21,947 HCl IR, mean, N = 10): 0.049^b hr^−1
λz (single oral 450 mg DOV 21,947 HCl IR, Female, N = 5): 0.028 h⁻¹
λz (single oral 450 mg DOV 21,947 HCl IR, Male, N = 5): 0.042 h⁻¹
Percent of Dose in Urine (0-24 hr) [2]: 0.067 (0.035) Percent of Dose
Ratio DOV 216,298/DOV 21,947 in urine (0-24 hr) [2]: 0.256 (0.173)
Mean Amount in Urine (single oral 450 mg DOV 21,947 HCl IR, Period 0-1 hr): 0.0 µg
Mean Amount in Urine (single oral 450 mg DOV 21,947 HCl IR, Period 1-2 hr): 2.1 µg
Mean Amount in Urine (single oral 450 mg DOV 21,947 HCl IR, Period 2-4 hr): 45.2 µg
Mean Amount in Urine (single oral 450 mg DOV 21,947 HCl IR, Period 4-8 hr): 89.3 µg
Mean Amount in Urine (single oral 450 mg DOV 21,947 HCl IR, Period 8-12 hr): 61.2 µg
Mean Amount in Urine (single oral 450 mg DOV 21,947 HCl IR, Period 12-24 hr): 63.5 µg
Mean Amount in Urine (single oral 450 mg DOV 21,947 HCl IR, Total (0-24 hr)): 261 µg
λz (single oral 450 mg DOV 21,947 HCl IR, mean, N = 10): 0.035 h⁻¹
